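Method: 48-hour compound exposure of cells in 96-well plates, five concentrations, linear interpolation of endpoints. GI50 = concentration required for 50% inhibition of growth. At the TGI there is no net growth.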
Legend:
Test in all cases: NCI anticancer screen, dose series, 48 h
HCT-116 colon = tested on: HCT-116 colon
NCI-H226 lung = tested on: NCI-H226 lung
NCI-H522 lung = tested on: NCI-H522 lung
OVCAR-8 ovarian = tested on: OVCAR-8 ovarian
786-0 renal = tested on: 786-0 renal
UO-31 renal = tested on: UO-31 renal
SK-MEL-28 melanoma = tested on: SK-MEL-28 melanoma
HCT-15 colon = tested on: HCT-15 colon
SF-539 CNS = tested on: SF-539 CNS
SR leukemia = tested on: SR leukemia

| Compound | GI50 (HCT-116 colon) [µM] | TGI (HCT-116 colon) [µM] | GI50 (NCI-H226 lung) [µM] | TGI (NCI-H226 lung) [µM] | GI50 (NCI-H522 lung) [µM] | TGI (NCI-H522 lung) [µM] | GI50 (OVCAR-8 ovarian) [µM] | TGI (OVCAR-8 ovarian) [µM] | GI50 (786-0 renal) [µM] | TGI (786-0 renal) [µM] | GI50 (UO-31 renal) [µM] | TGI (UO-31 renal) [µM] | GI50 (SK-MEL-28 melanoma) [µM] | TGI (SK-MEL-28 melanoma) [µM] | GI50 (HCT-15 colon) [µM] | TGI (HCT-15 colon) [µM] | GI50 (SF-539 CNS) [µM] | TGI (SF-539 CNS) [µM] | GI50 (SR leukemia) [µM] | TGI (SR leukemia) [µM] |
| --- | --- | --- | --- | --- | --- | --- | --- | --- | --- | --- | --- | --- | --- | --- | --- | --- | --- | --- | --- | --- |
| CCCN(CCS(C)(=O)=O)Cc1ccc(-c2ccc3ncnc(Nc4ccc(OCc5cccc(F)c5)c(Cl)c4)c3c2)o1 | > 25 | > 25 | > 25 | > 25 | 0.525 | > 25 | > 25 | > 25 | > 25 | > 25 | 5.12 | > 25 | > 25 | > 25 | > 25 | > 25 | > 25 | > 25 | > 20.9 | > 25 |
| COc1cc2c(cc1C1COc3cc4occc4cc3C1=O)OCO2 (stereo not drawn) | – | > 100 | – | > 100 | – | > 100 | – | > 100 | – | > 100 | – | > 100 | – | > 100 | – | > 100 | – | > 100 | – | > 100 |
| O=C(OCc1ccc2ccccc2n1)c1cn(C2CC2)c2cc(N3CCN(Cc4ccc5ccccc5n4)CC3)c(F)cc2c1=O | > 53.2 | > 95.3 | 22.1 | 91.6 | > 94.3 | > 100 | 51.5 | > 100 | > 49.2 | > 68.4 | > 100 | > 100 | 35.4 | > 100 | 62.6 | > 100 | 21.2 | 58 | > 100 | > 100 |
| COc1cc(N2C(=O)[C@H](O)C2c2ccc(SC)cc2)cc(OC)c1OC (stereo partly drawn) | < 0.01 | > 100 | < 0.01 | > 100 | < 0.01 | – | < 0.01 | 22.4 | < 0.01 | 55.8 | – | – | – | – | 0.0115 | > 100 | < 0.01 | – | < 0.01 | > 100 |
| CC#CCC1CCC(OCC)=CC1=O (stereo not drawn) | – | > 100 | – | > 100 | – | > 100 | – | > 100 | – | > 100 | – | > 100 | – | > 100 | – | > 100 | – | > 100 | – | > 100 |
| COC1C=COC2(C)Oc3c(C)c(O)c4c(c3C2=O)/C(=N/C2CCC(O)OC2C)C=C(NC(=O)/C(C)=C\C(=O)C2CC2C(O)C(C)C(O)C(C)C(OC(C)=O)C1C)C4=O (stereo not drawn) | – | 3.56 | – | 8.06 | – | 2.79 | – | 3.89 | – | 3.13 | – | 5.59 | – | 4.32 | – | 9.79 | – | 5.34 | – | 5.06 |
| N#CC1(C(N)=O)C(c2ccc(Cl)cc2)CC(=O)CC1c1ccc(Cl)cc1 (stereo not drawn) | 14.8 | 28 | 16 | 31.6 | 14.2 | 29.5 | 18.4 | 42.2 | 17.1 | 30.8 | 16.3 | 32 | 16.6 | 30.6 | 16.8 | 34.3 | 18.4 | 34.5 | – | – |
| N#CC(C#N)=C1NC(=O)CC(=O)N1 | – | > 100 | – | > 100 | – | > 100 | – | > 100 | – | > 100 | – | > 100 | – | – | – | > 100 | – | > 100 | – | > 100 |
| COc1ccc(-c2[nH]c3ccccc3c2-c2ccc(OC)cc2)cc1 | 3.93 | 14.6 | – | – | 12 | 40.7 | 10.3 | 35.8 | 2.95 | 7.64 | 3.29 | 15.5 | 8.6 | 31.5 | 3.56 | 14.1 | 3.05 | 10.4 | – | – |
| O=C1c2c(c3c4ccccc4[nH]c3c3ccc4ccccc4c23)C(=O)N1CCN1CCNCC1 | 1.59 | 3.06 | 11.7 | 33.3 | 1.75 | 3.61 | – | – | 1.76 | 3.21 | 1.24 | 2.53 | 1.68 | 3.1 | 1.49 | 2.98 | 1.68 | 3.06 | 0.598 | 2.63 |
| O=C(NN1C(=O)CSC12CCCCC2)c1[nH]c2ccc(Br)cc2c1-c1ccccc1 | 16.4 | 35.3 | 23 | 55.7 | 18.7 | 49.5 | 16.3 | 30.1 | 18.9 | 38.9 | 22.4 | 68.9 | 24.8 | 69 | 17.1 | 39.7 | 21 | 39.9 | – | – |
| COc1cccc(OC(=O)c2ccc(C(F)(F)F)nc2Nc2cc(Cl)ccc2C)c1 | 16.9 | 55.8 | 4.88 | 31.5 | 10 | 71.3 | 24.2 | > 100 | 10.7 | 24.5 | 5.8 | > 100 | 9.26 | > 100 | 4.33 | > 100 | 8.75 | 32 | – | – |
| COc1ccc(C=O)c([N+](=O)[O-])c1 | – | 26.4 | – | > 100 | – | > 100 | – | > 100 | – | > 100 | – | > 100 | – | > 100 | – | > 100 | – | 47.2 | – | – |
| N#CC(=C1C=CC(=NO)C=C1)c1ccc(Cl)cc1 | – | 21.6 | – | – | – | 7.66 | – | 60.3 | – | 5.69 | – | 31.7 | – | 37.9 | – | 49.6 | – | 25.4 | – | 43.5 |
| O=C1C(=C([O-])c2ccccc2)C(=O)c2ccccc21.O=C1C(=C([O-])c2ccccc2)C(=O)c2ccccc21.[Fe+2] | > 100 | > 100 | > 100 | > 100 | > 100 | > 100 | 72.4 | > 100 | > 100 | > 100 | 44.8 | > 100 | > 100 | > 100 | – | – | > 100 | > 100 | – | – |
| COc1ccc(-c2cc(Cc3cccs3)c(=O)[nH]n2)cc1 | – | > 100 | – | > 100 | – | – | – | > 100 | – | > 100 | – | > 100 | – | > 100 | – | > 100 | – | > 100 | – | – |

— PubChem BioAssay (NCI)
